Results from patent publication US11471446B2, “Compounds for treatment of hypoproliferative disorders” (LU LICENSE AB, priority 2015, dated 2022).
Entries after “also recorded” stand apart in the source; their conditions may differ. Where a name gives a salt, the structure may show the parent alone. Each block holds one compound with its values, some of them ahead of it.

Columns and labels:
[1] = test system: RPS19-deficient murine erythroid progenitor cells; experiment: Phenotypic assay for rescued cell proliferation of murine RPS19-deficient erythroid progenitor cells; type: cell-based, mouse; conditions: for Emax / EC50: Mus musculus, Erythroid progenitor cell; for Emax: maximal proliferation rescue, read-out: ECMAX (% rescue); for EC50: proliferation rescue of RPS19-deficient erythroid progenitor cells; for rescue of proliferation (in words): RPS19-deficient murine erythroid progenitor cells
Description: Correction of reduced proliferative capacity of RPS19-deficient erythroid progenitors was used as readout in a phenotypic screen for novel drug candidates.

[2] = test system: RPS19-deficient erythroid progenitor cells; experiment: c-kit FACS, maintenance of c-kit+ progenitor cells in culture of RPS19-deficient erythroid progenitors; type: cell-based, mouse
Description: FIG. 8: The selective CDK8/CDK19 inhibitors DBA-7 and DBA-8 rescue the loss of c-kit+ progenitor cell observed in in vitro culture of RPS19-deficient erythroid progenitors.
(§1) In addition, the selective CDK8/CDK19 inhibitors DBA-7 and DBA-8 both rescued RPS19-deficient erythroid progenitor cells from apoptosis (FIG. 7) and loss of kit+ progenitor cell maintenance in culture (FIG. 8).

[3] = test system: RPS19-deficient erythroid progenitor cells; experiment: 7-AAD FACS, cell survival of RPS19-deficient erythroid progenitors; type: cell-based, mouse
Description: as §1

DBA patient CD34+ cells [4] = experiment: Erythroid maturation of DBA patient cells in vitro (CD71/CD235a flow cytometry); type: cell-based, human; conditions: 200 nM; day 8 of culture; compared to DMSO
Procedure: Cells were cultured in the same conditions as in FIG. 9 and analysed by flow cytometry at day 8 of culture. CD71 is a positive marker for early erythroid progenitors while CD71 and CD235a positive cells are mature erythroid precursors.
(§2) To confirm that CDK8/CDK19 inhibitors rescue erythropoiesis also in human DBA patient cells, CD34+ cells were isolated from healthy donors and DBA patients. CD34+ cells were cultured in conditions supporting expansion of erythroid progenitors and precursors. Three CDK8/CDK19 inhibitors and vehicle control were added to the cultures.

DBA patient CD34+ cells [5] = experiment: Proliferation of erythroid DBA patient CD34+ cells in vitro; type: cell-based, human; conditions: 200 nM; day 14 of culture
Procedure: 5000 peripheral blood CD34+ cells from healthy donors or DBA patients were plated in serum free medium containing human stem cell factor and Epo to support expansion of erythroid progenitors and precursor cells. […] All three CDK8-inhibitors promote proliferation of DBA patient cells.
as §2

RPS19-deficient mice = experiment: Reticulocyte counts in RPS19-deficient mouse model for DBA; type: in vivo; conditions: oral 10 mg/kg every 12 hours, 5 doses; peripheral blood 48 hours after last treatment
Procedure: Treatment was stopped after 5 doses. 48 hours after last treatment peripheral blood was analysed for reticulocyte counts, which reflects the ongoing production of erythrocytes.
Treatment is stopped after 5 doses. 48 hours after last treatment peripheral blood is analysed for reticulocyte counts, which reflects the ongoing production of erythrocytes. Reticulocyte counts is rescued in RPS19-deficient mice treated with the selective CDK8/CDK19 inhibitors tested. In addition to rescue of reticulocyte and haemoglobin levels, other effects of the tested CDK8/CDK19 inhibitors are determined, in particular their ability to rescue bone marrow hypocellularity, to promote hemapopoetic stem and progenitor development, as well as cell cycle arrest and apoptosis.

[6] = known from Saito et al.; cited from earlier work
CDK19 [7] = biological target: T1, CDK19 (Homo sapiens (Human), UniProt Q9BWU1); experiment: 18 selected kinases panel, DiscoveRx LeadHunter Discovery Services; type: binding; conditions: tested on 18 selected kinases
T1 sequence (Q9BWU1 whole entry): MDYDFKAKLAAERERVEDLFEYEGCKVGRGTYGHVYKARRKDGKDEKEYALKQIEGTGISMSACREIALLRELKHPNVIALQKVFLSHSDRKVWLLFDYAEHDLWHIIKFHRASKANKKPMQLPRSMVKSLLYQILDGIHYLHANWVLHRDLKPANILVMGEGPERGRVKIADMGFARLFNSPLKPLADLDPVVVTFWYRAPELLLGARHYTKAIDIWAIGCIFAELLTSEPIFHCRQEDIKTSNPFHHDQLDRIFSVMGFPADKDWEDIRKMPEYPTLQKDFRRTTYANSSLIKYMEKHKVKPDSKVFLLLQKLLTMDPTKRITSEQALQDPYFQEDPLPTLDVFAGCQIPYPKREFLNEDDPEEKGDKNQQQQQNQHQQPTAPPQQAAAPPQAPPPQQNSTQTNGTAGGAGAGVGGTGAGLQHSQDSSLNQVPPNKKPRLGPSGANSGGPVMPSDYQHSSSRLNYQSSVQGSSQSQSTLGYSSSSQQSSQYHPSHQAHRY
Procedure: DBA-4 was tested on 18 selected kinases by DiscoveRx LeadHunter™ Discovery Services.

CDK19 [8] = biological target: T1, CDK19; experiment: KinomeScan (DiscoveRx) on 468 kinases; type: binding; conditions: 0.5 μM
Description: (§3) Arrows point at CDK8 and CDK19.
(§4) In particular, a compound may be considered to be a CDK8 and/or CDK19 inhibitor if it can inhibit CDK8 and/or CDK19 at a concentration as defined herein above using the KinomeScan assay.

CDK8 = CDK8 (Homo sapiens (Human), UniProt P49336); experiment: KinomeScan (DiscoveRx) on 468 kinases; type: binding; conditions: 0.5 μM
Chain of CDK8 (P49336 whole entry): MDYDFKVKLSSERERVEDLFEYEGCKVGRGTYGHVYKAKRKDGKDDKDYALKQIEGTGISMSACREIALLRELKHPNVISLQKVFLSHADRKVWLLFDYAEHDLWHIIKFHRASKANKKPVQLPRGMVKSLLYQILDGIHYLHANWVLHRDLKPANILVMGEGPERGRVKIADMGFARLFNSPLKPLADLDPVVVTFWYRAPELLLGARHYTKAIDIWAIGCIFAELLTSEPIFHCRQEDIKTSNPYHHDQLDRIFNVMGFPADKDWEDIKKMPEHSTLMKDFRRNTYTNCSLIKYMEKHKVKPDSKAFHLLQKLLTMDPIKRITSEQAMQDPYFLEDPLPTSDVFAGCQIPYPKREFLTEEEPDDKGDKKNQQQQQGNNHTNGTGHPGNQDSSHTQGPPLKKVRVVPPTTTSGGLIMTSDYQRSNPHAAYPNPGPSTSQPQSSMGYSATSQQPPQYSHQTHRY
Description: as §3, §4

SMILES: Cc1c(C(N)=O)sc2nc(C(F)(F)F)cc(N)c12 [DBA-5]
Emax [1]: 21% | EC50 [1]: 1700 nM | rescue of proliferation (in words) [1]: potent

SMILES: N#Cc1ccc2ncnc(NCCc3ccccc3)c2c1 [DBA-8, reference compound]
rescue of loss of kit+ progenitor cell maintenance in culture [2]: rescued | rescue from apoptosis (7-AAD) [3]: rescued | Emax [1]: 80% | EC50 [1]: 500 nM | rescue of proliferation (in words) [1]: partial dose-dependent rescue of proliferation

SMILES: Cc1c(Br)c(Br)c2c3c1nc(N1CCNCC1)n3CCC2 [DBA-10, 7,8-dibromo-9-methyl-2-(piperazin-1-yl)-5,6-dihydro-4H-imidazo[4,5,1-ij]quinoline hydrochloride, reference compound]
erythroid maturation of DBA patient cells (CD71, CD235a) (DBA patient CD34+ cells [4]): increase erythroid maturation | proliferation of DBA patient cells (cell counts) (DBA patient CD34+ cells [5]): rescue proliferation | Emax [1]: 60% | EC50 [1]: 20 nM

SMILES: CN1CCN(C(=O)c2ccc3cc(CCNc4ncnc5ccc(C#N)cc45)ccc3c2)CC1 [DBA-9]
erythroid maturation of DBA patient cells (CD71, CD235a) (DBA patient CD34+ cells [4]): increase erythroid maturation | proliferation of DBA patient cells (cell counts) (DBA patient CD34+ cells [5]): rescue proliferation | reticulocyte counts (RPS19-deficient mice): rescued | Emax [1]: 60%

SMILES: NC(=O)c1sc2nccc(N3CCCN(c4ccccc4)CC3)c2c1N [DBA-6]
bone anabolic effect [6]: effect as bone anabolic agents | Emax [1]: 30% | rescue of proliferation (in words) [1]: partial dose-dependent rescue of proliferation; also recorded: potent

SMILES: CN(C)c1ccnc2sc(C(N)=O)c(N)c12 [DBA-1]
bone anabolic effect [6]: effect as bone anabolic agents | Emax [1]: 25% | EC50 [1]: 1200 nM | rescue of proliferation (in words) [1]: partial dose-dependent rescue of proliferation; also recorded: potent

inhibition of CDK19 (CDK19 [7]): inhibited
SMILES: COCc1cc(C)nc2sc(C(N)=O)c(N)c12 [DBA-4]
Emax [1]: 28% | EC50 [1]: 2800 nM | rescue of proliferation (in words) [1]: potent

SMILES: CCc1nc2sc(C(N)=O)c(N)c2c2c1CCCC2 [DBA-3]
Emax [1]: 38% | EC50 [1]: 11000 nM | rescue of proliferation (in words) [1]: potent

SMILES: Cn1cc(-c2ccc(-c3cncc(Cl)c3N3CCC4(CCNC4=O)CC3)cc2)cn1 [DBA-11, 8-[3-chloro-5-[4-(1-methyl-1H-pyrazol-4-yl)phenyl]-4-pyridinyl]-2,8-diazaspiro[4.5]decan-1-one, reference compound]
Emax [1]: 50% | EC50 [1]: 20 nM

SMILES: COc1ccc(-c2cc(C3CC3)nc3sc(C(N)=O)c(N)c23)cc1 [DBA-2]
Emax [1]: 45% | EC50 [1]: 15000 nM | rescue of proliferation (in words) [1]: potent

inhibition of CDK19 (CDK19 [8]): very selectively inhibited | inhibition of CDK8 (CDK8): very selectively inhibited
SMILES: CN(C)C(=O)Cc1ccc(N2CCCN(c3ccnc4sc(C(N)=O)c(N)c34)CC2)cc1 [DBA-7]
bone anabolic effect [6]: effect as bone anabolic agents | erythroid maturation of DBA patient cells (CD71, CD235a) (DBA patient CD34+ cells [4]): increase erythroid maturation | proliferation of DBA patient cells (cell counts) (DBA patient CD34+ cells [5]): rescue proliferation | rescue of loss of kit+ progenitor cell maintenance in culture [2]: rescued | rescue from apoptosis (7-AAD) [3]: rescued | Emax [1]: 82% | EC50 [1]: 25 nM | rescue of proliferation (in words) [1]: potent; also recorded: partial dose-dependent rescue of proliferation
